Results on 3 substances are retold here after patent publication US20240261465A1, “METHOD OF STOPPING BLEEDING USING NANOFIBROUS PEPTIDE HYDROGELS AS HEMOSTASIS AGENT” (KING ABDULLAH UNIVERSITY OF SCIENCE AND TECHNOLOGY, priority 2021, published 2024).

One series concerns Human platelets. The experiment in a line: Surface coating and platelet adhesion. Type of series: cell-based. The note with it: fluorescence microscopy images, FIG. 23; for platelet adhesion: coated surface. From the text:
In one embodiment, the self-assembling peptides induce platelet adhenrance. In a preferred embodiment, the self-assembling peptides induce more platelet adhenrance than collagen. One important factor for accelerating blood coagulation could be by promoting the recruitment and adherence of platelets to the site of injury as these processes play a critical role in primary hemostasis (O'Shaughnessy, D. and R. Gill, 19 Cardiothoracic surgery. Practical Hemostasis and Thrombosis, 2009: p. 194). Therefore, platelet adherence induced by peptide hydrogels, type I collagen (positive control), and bovine serum albumin (BSA) (negative comtrol) was tested and compared. […] The scale bar in FIG. 23 is 100 μm. […] The level of platelet adhesion induced by peptide hydrogels, type I collagen (positive control) was also quantified, as shown in FIG. 24. According to FIG. 24, the level of platelet adhesion induced by peptide hydrogels is even higher than that of collagen. […] Therefore, our peptides induced platelet adhesion, a process that may help trigger the coagulation system.
The procedure was done as described previously (Chen, C., et al., Hydrogelation of the short self-assembling peptide 13QGK regulated by transglutaminase and use for rapid hemostasis. ACS applied materials & interfaces, 2016. 8(28): p. 17833-17841). Briefly, for surface coating. 200 μL of 6 mM IVFK (SEQ ID NO. 1), 6 mM IVZK (SEQ ID NO. 2), 0.5% (w/v), BSA (PBS, pH 7.4), and 0.01 mg/mL type I collagen (PBS, pH 7.4) solutions were added to the wells of a 96-well black plate and incubated at 4° C. for 24 h. The wells were washed three times with PBS after removing these solutions. Human platelets were isolated from whole human blood containing anticoagulant sodium citrate (0.38%, w/v) as described previously(Chen, C., et al., Hydrogelation of the short self-assembling peptide 13QGK regulated by transglutaminase and use for rapid hemostasis. ACS applied materials & interfaces, 2016. 8(28): p. 17833-17841). The blood collection was approved by IBEC (18IBEC143). Briefly, platelet-rich plasma (PRP) was collected by centrifugation at 200×g for 20 min at 25° C. Then, PRP was diluted at a 1:1 ratio with PBS and subjected to second centrifugation at 800×g for 12 min at 25° C. The isolated platelets were washed three times with Tyrode's buffer (Hepes 20 mM, glucose […], BSA 1 mg/mL, NaH2PO4 3.3 mM, NaCl 137 mM, KCl 2.7 mM), followed by staining with calcein-AM (1 μg/mL) for 30 min in the dark at room temperature to stained platelets. After washing twice with PBS, the stained platelets were added into the coated wells and incubated for 1 h at 37° C. Subsequently, the supernatants were removed, and the unbound platelets were discarded by washing three times with PBS. The fluorescence of adherent platelets was measured by fluorescence microscopy.

Another series concerns plasma. The experiment in a line: Blood coagulation test (aPTT), normal plasma. The note with it: peptide solution mixed with plasma, 37° C., control without peptides around 40 seconds. The method, then:
In one embodiment, an application of the peptide-based hemostatic material in the present disclosure to the bleeding wound produces a coagulation time of less than 40 seconds. The coagulation time of normal plasma (without self-assembling peptides) and plasma with IVZK (SEQ ID NO. 2) or IVFK (SEQ ID NO. 1) hydrogels as initiators for clot formation was compared using a partial thromboplastin time (aPTT) test. The hemostatic properties of the peptides were evaluated by measuring the coagulation time after mixing the peptide solution with plasma. […] The coagulation time of the control (without self-assembling peptides) was around 40 seconds, which is within the normal range.
The aPTT test was performed in a coagulation meter MC 10 PLUS (MERLIN® Medical, Germany). First, 100 μL of plasma was incubated at 37° C., followed by adding 100 μL of a-PTT reagent. Then, the plasma-reagent mixture was incubated at 37° C. for 5 minutes (activation time). Finally, 100 μL of pre-warmed […] calcium chloride was added and time clot formation was recorded. In experimental group, 150 μL of plasma was pre-warmed and then 150 μL of peptide solution was added and the time was recorded. Each test was conducted at least three times.

Series [1] in a line: Determination of gelation time by coagulation meter. The class given is physicochemical. The note with it: for gelation time, effect of temperature: 37° C. versus 25° C., FIGS. 1 and 2; for onset of gelation: different temperatures, different concentrations, FIGS. 3 and 4. The protocol: In one embodiment, the nanofiber formation of the self-assembling peptides is affected by concentration of the peptide solution (Luo, Z., S. Wang, and S. Zhang, Fabrication of self-assembling D-form peptide nanofiber scaffold d-EAK16 for rapid hemostasis. Biomaterials, 2011. 32(8): p. 2013-2020). The gelation time of different peptides at various concentrations was recorded using a coagulation meter. FIGS. 1 and 2 illustrate the gelation time of two peptides with different concentrations at two different temperatures (25° C., 37° C.). As shown in both FIGS. 1 and 2, as the concentration of peptide increases, the required time for gelation decreases.
In one embodiment, the peptide gelation is impacted by temperature. […] This effect can be explained by the increasing of kinetic energy which is helps in bond formation within molecules enabling the peptide solution to form gels faster at 37° C. than at 25° C.
In one embodiment, the gelation time is impacted by temperature.
In this study, onset of gelation was assessed using coagulation meter MC 10 PLUS (MERLIN® Medical, Germany). The peptide solution at different concentrations was used and checked under various conditions. For the coagulation experiment, 300 μl of peptide solution was added into a tube and placed in the preheated position for 50 seconds before adding 30 μl of PBS. The time at which the gel formed was then recorded. The temperature was chosen in advance and all solutions were incubated at the desired temperature before conducting the measurements.

Non-standard residues stand in square brackets, D forms with d. No end group written: not given here. Cha = N[C@@H](CC1CCCCC1)C(=O)O

Consider “IVZK: tetrameric self-assembling ultrashort peptide IVZK (SEQ ID NO. 2), forms nanofibrous hydrogel (IV[Cha]K)”, for which, in the series with Human platelets, the platelet adhesion result is reported as “considerable platelet adhesion” and the “level of platelet adhesion relative to collagen (positive control)” value is “comparable to that on the surface of collagen”. Besides, the “coagulation (clotting) time” value with plasma was “around 5 seconds”. Moreover, in series [1], the “gelation time, effect of temperature” value is “faster gelation at 37 °C” and the onset of gelation entry is reported as “occurs faster with the increase of temperature”.

“bovine serum albumin [BSA, reference compound]”: the platelet adhesion result in the series with Human platelets was “little platelet adhesion”.

On to “IVFK: tetrameric self-assembling ultrashort peptide IVFK (SEQ ID NO. 1), forms nanofibrous hydrogel”, for which, in the series with Human platelets, the platelet adhesion result is listed as “considerable platelet adhesion” and the “level of platelet adhesion relative to collagen (positive control)” value was “comparable to that on the surface of collagen”. In the series on plasma, the “coagulation (clotting) time” value is given as “around 5 seconds”. In series [1], the “gelation time, effect of temperature” value was “faster gelation at 37 °C” and the onset of gelation result is listed as “occurs faster with the increase of temperature”.
